Assay results taken from patent publication US20240277705A1, “DOSAGE REGIMENS FOR ECUBECTEDIN” (PHARMA MAR S.A., priority 2021, published 2024).

Test system: patients with advanced solid tumors
Experiment: Phase I dose-escalating study, safety and dose limiting toxicities
Format: in vivo
Details: for maximum tolerated dose: 3-hour i.v. infusion
Description: Primary Study Objectives • Dose escalation phase: To identify the dose limiting toxicities (DLTs), and to determine the maximum tolerated dose (MTD) and the recommended dose (RD) of PM14 administered intravenously (i.v.) on two days (Day 1 and Day 8) or on Day 1 only, both every three weeks (q3wk) over three hours to patients with advanced solid tumors.
First-in-human, open-label, dose-finding, phase I trial, using a classical 3+3 design followed by a continual reassessment method (CRM) (see Dose Escalation Schedule, below).
Patients will be included in cohorts of a minimum of three or six patients to receive PM14 at successively increasing dose levels, starting at 0.25 mg/m2 for the Days 1 and 8 schedule. For the Day 1 schedule, the starting dose will be 4.5 mg/m^2.
Open-label, dose-escalating, phase I trial of PM14 administered as a 3-hour infusion i.v. every 3 weeks (q3wk) in human patients (pts) with advanced solid tumors, adequate organ function and ECOG PS score of 0-1. Two schedules were explored: Schedule A (Day 1 [D1], Day 8 [D8]) and Schedule B (D1).
Determination of MTD and RD: the MTD will be the lowest dose level explored during dose escalation in which one third or more of evaluable patients develop a DLT in Cycle 1. The CRM could be used to define the RD.
Secondary Endpoints • Safety: patients will be evaluable for safety if they have received at least one partial infusion of PM14. AEs will be graded according to the NCI-CTCAE v.4. Additionally, treatment-related discontinuations and treatment compliance (dose reduction, skipped doses and/or treatment delays due to AEs), will be described. • Pharmacokinetics: PK analyses will be evaluated in plasma and urine by standard non-compartmental analysis (compartmental modeling may be performed if appropriate). Plasma samples for PM14 PK analysis will be obtained in Cycle 1 from all patients, and also in Cycle 2 from patients treated during Step D of the CRM. In addition, the urine produced during Day 1 of Cycle 1 and Cycle 2 will be collected from patients treated during Step D of the CRM. • Pharmacogenetics: the presence or absence of PGt polymorphisms in genes relevant for PM14 disposition (distribution, metabolism and excretion) from a single blood sample collected at any time during the trial (but preferably at the same time as the pre-treatment PK sample on Day 1 of Cycle 1) will be assessed to explain individual variability in main PK parameters. • Pharmacogenomics: this exploratory analysis will be performed in those patients who sign the Informed Consent Form (ICF) for the PGx study. mRNA or protein expression levels of factors involved in DNA repair mechanisms, or related to the mechanism of action of PM14, will be evaluated from available tumor tissue samples obtained at diagnosis or relapse and in cell-free ctDNA. Their mutational status might also be analyzed, if relevant. Their correlation with the clinical response and outcome after treatment will be assessed. • Efficacy: patients will be evaluable for efficacy if they receive at least one complete infusion of PM14 and have at least one clinical or radiological tumor assessment as per RECIST v.1.1 or serum markers, or if they are considered to have failed treatment. Treatment failure will be defined as clinical deterioration, death due to PD or treatment discontinuation due to any treatment-related toxicity before any appropriate tumor assessments have been performed. […]

[1] = Schedule A D1,D8, 3.0 mg/m^2 (n: 9)
[2] = Schedule A D1,D8, <3.0 mg/m^2 (n: 14)
[3] = Schedule A D1,D8, >3.0 mg/m^2 (n: 5)
[4] = Schedule B D1, 4.5 mg/m^2 (n: 6)
[5] = Schedule B D1, 5.6 mg/m^2 (n: 3)

COc1c(C)cc2c(c1O)[C@@H]1[C@@H]3[C@@H]4SC[C@]5(N[C@H](CO)Cc6c5[nH]c5ccccc65)C(=O)OC[C@@H](c5c6c(c(C)c(OC(C)=O)c54)OCO6)N3[C@@H](O)[C@H](C2)N1C [PM14, ECUBECTEDIN]
DLTs at the RDs (3.0 mg/n^2 D1,D8 (A) and 4.5 mg/n^2 D1 (B)): No DL-Ts
maximum tolerated dose (Schedule A (D1, D8 q3wk)): 4.5 mg/m^2
ALT increase Gr 1-2, (%) [1]: (55.6%)
ALT increase Gr 3, (%) [1]: (11.1%)
AST increase Gr 1-2, (%) [1]: (77.8%)
Anemia Gr 1-2, (%) [1]: (77.8%)
Anemia Gr 3, (%) [1]: (11.1%)
CPK increase Gr 1-2, (%) [1]: (22.2%)
Diarrhoea Gr 1-2, (%) [1]: (11.1%)
Nausea Gr 1-2, (%) [1]: (11.1%)
Neutropenia Gr 1-2, (%) [1]: (11.1%)
Neutropenia Gr 3, (%) [1]: (11.1%)
Neutropenia Gr 4, (%) [1]: (11.1%)
Vomiting Gr 1-2, (%) [1]: (11.1%)
Vomiting Gr 3, (%) [1]: (11.1%)
ALT increase Gr 1-2, (%) [2]: (35.7%)
AST increase Gr 1-2, (%) [2]: (21.4%)
Anemia Gr 1-2, (%) [2]: (85.7%)
CPK increase Gr 1-2, (%) [2]: (42.9%)
Constipation Gr 1-2, (%) [2]: (7.1%)
Decreased appetite Gr 1-2, (%) [2]: (7.1%)
Diarrhoea Gr 1-2, (%) [2]: (14.3%)
Fatigue Gr 1-2, (%) [2]: (28.6%)
Nausea Gr 1-2, (%) [2]: (42.9%)
Neutropenia Gr 1-2, (%) [2]: (14.3%)
Vomiting Gr 1-2, (%) [2]: (42.9%)
ALT increase Gr 1-2, (%) [3]: (60.0%)
ALT increase Gr 3, (%) [3]: (40.0%)
AST increase Gr 1-2, (%) [3]: (100.0%)
Anemia Gr 1-2, (%) [3]: (80.0%)
Anemia Gr 3, (%) [3]: (20.0%)
Constipation Gr 1-2, (%) [3]: (60.0%)
Decreased appetite Gr 1-2, (%) [3]: (40.0%)
Diarrhoea Gr 1-2, (%) [3]: (20.0%)
Fatigue Gr 1-2, (%) [3]: (40.0%)
Fatigue Gr 3, (%) [3]: (20.0%)
Nausea Gr 1-2, (%) [3]: (80.0%)
Neutropenia Gr 1-2, (%) [3]: (20.0%)
Neutropenia Gr 4, (%) [3]: (40.0%)
Vomiting Gr 1-2, (%) [3]: (60.0%)
recommended dose (RD) (Schedule A, on D1,D8): 3.0 mg/n^2
maximum tolerated dose (Schedule B (D1 q3wk)): 5.6 mg/rn^2
ALT increase Gr 1-2, (%) [4]: (66.7%)
ALT increase Gr 3, (%) [4]: (33.3%)
AST increase Gr 1-2, (%) [4]: (50.0%)
AST increase Gr 4, (%) [4]: (16.1%)
Anemia Gr 1-2, (%) [4]: (83.3%)
CPK increase Gr 1-2, (%) [4]: (33.3%)
Decreased appetite Gr 1-2, (%) [4]: (16.7%)
Fatigue Gr 1-2, (%) [4]: (50.0%)
Headache Gr 1-2, (%) [4]: (16.7%)
Nausea Gr 1-2, (%) [4]: (50.0%)
Neutropenia Gr 3, (%) [4]: (16.7%)
Neutropenia Gr 4, (%) [4]: (16.7%)
Vomiting Gr 1-2, (%) [4]: (16.7%)
ALT increase Gr 1-2, (%) [5]: (66.7%)
ALT increase Gr 4, (%) [5]: (33.3%)
AST increase Gr 1-2, (%) [5]: (33.3%)
AST increase Gr 4, (%) [5]: (33.3%)
Anemia Gr 1-2, (%) [5]: (33.3%)
Anemia Gr 3, (%) [5]: (66.7%)
CPK increase Gr 1-2, (%) [5]: (66.7%)
Fatigue Gr 1-2, (%) [5]: (33.3%)
Febrile neutropenia Gr 4, (%) [5]: (33.3%)
Neutropenia Gr 1-2, (%) [5]: (33.3%)
Neutropenia Gr 3, (%) [5]: (33.3%)
Neutropenia Gr 4, (%) [5]: (33.3%)
recommended dose (RD) (Schedule B, on D1): 4.5 mg/n^2
tolerability at the RDs (patients with advanced solid tumors): well tolerated
